The source of these data is patent publication EP4574811A1, “CRYSTALLINE FORMS OF ELACESTRANT DIHYDROCHLORIDE” (SANDOZ AG, priority 2023, dated 2025).

Where a name gives a salt, the structure may show the parent alone.

This data set in a line: Dissolution testing (aqueous solubility in water at 24°C). As to conditions: dihydrochloride; for Aqueous solubility (concentration of clear solution): in water at 24 °C; for stability of the supersaturated solution: 51.9 mg/ml solution in water at 24 °C. Format: physicochemical. The procedure: Aqueous solubility was determined dissolution experiments of Elacestrant dihydrochloride of the present invention in water at 24°C.

`CCNCCc1ccc(CN(CC)c2cc(OC)ccc2[C@@H]2CCc3cc(O)ccc3C2)cc1` [Form 1, (6R)-6-(2-(ethyl((4-(2-(ethylamino)ethyl)phenyl)-methylamino)-4-methoxyphenyl)-5,6,7,8-Tetrahydronaphthalen-2-oldihydrochloride, reference compound]: the “Aqueous solubility (concentration of clear solution)” value (from here on “Aqueous solubility”) was “less than 9,2 mg/ml”.

On to `CCNCCc1ccc(CN(CC)c2cc(OC)ccc2[C@@H]2CCc3cc(O)ccc3C2)cc1` [Form A, (6R)-6-(2-(ethyl((4-(2-(ethylamino)ethyl)phenyl)-methylamino)-4-methoxyphenyl)-5,6,7,8-Tetrahydronaphthalen-2-oldihydrochloride], for which the “Aqueous solubility” value is reported as 34,5 mg/ml. Moreover, the “Aqueous solubility” value (listed as form A) was “about 34.5 mg/ml”.

For `CCNCCc1ccc(CN(CC)c2cc(OC)ccc2[C@@H]2CCc3cc(O)ccc3C2)cc1` [Form B, (6R)-6-(2-(ethyl((4-(2-(ethylamino)ethyl)phenyl)-methylamino)-4-methoxyphenyl)-5,6,7,8-Tetrahydronaphthalen-2-oldihydrochloride], the “stability of the supersaturated solution” value was “instable” and the “Aqueous solubility” value worked out at 51.9 mg/mL. The “stability of the supersaturated solution” value (listed as form B) is “precipitation of Elacestrant dihydrochloride was occurred”.
